Test results as given in patent publication US20220089592A1, “IMIDAZO[1,2-A]PYRIDINYL DERIVATIVES AS IRAK4 INHIBITORS” (priority 2019, published 2022).

biological target: T1, IRAK4 (Homo sapiens, UniProt Q9NWZ3); test: 2-hour 1 mM ATP IRAK4 Biochemical assay (as above, but with 100 pM IRAK4 and 1 mM ATP); conditions: IRAK4 MSD BIOCHEMICAL (1 mM ATP) IC50 (μM), 100 pM IRAK4, 2 hours
T1 sequence (Q9NWZ3 1-460): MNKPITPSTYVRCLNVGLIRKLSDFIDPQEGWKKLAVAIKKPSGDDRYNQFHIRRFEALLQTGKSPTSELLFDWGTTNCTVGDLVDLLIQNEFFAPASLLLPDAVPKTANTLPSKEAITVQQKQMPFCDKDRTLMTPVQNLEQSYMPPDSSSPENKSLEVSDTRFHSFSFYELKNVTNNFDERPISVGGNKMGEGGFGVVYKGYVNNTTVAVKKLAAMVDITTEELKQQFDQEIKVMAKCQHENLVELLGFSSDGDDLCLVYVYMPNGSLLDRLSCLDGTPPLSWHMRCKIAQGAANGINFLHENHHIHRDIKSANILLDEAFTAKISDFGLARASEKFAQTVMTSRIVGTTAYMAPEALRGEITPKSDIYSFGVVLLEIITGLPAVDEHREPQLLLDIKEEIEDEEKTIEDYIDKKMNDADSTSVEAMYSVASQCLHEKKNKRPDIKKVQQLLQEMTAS
Method in brief: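 MSD electrochemiluminescence read-out: biotinylated peptide product bound to streptavidin plates, probed with anti-P-Thr rabbit antibody and Sulfo-Tag goat anti-rabbit. Kinase reaction used 1 mM ATP and 100 pM IRAK4 over 2 hours before EDTA quench.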

| SMILES | IC50 |
| --- | --- |
| COc1ncccc1C(=O)Nc1cn2cc(C34CCC(C)(C3)OC4)nc2c(OC)n1 (centres unmarked) [Example 468, 2-methoxy-N-(8-methoxy-2-(1-methyl-2-oxabicyclo[2.2.1]heptan-4-yl)imidazo[1,2-a]pyrazin-6-yl)nicotinamide 2,2,2-trifluoroacetate] | 0.022 µM |
| COc1nc(NC(=O)c2cccc3c2OCC3)cn2cc(C34CCC(C)(C3)OC4)nc12 (centres unmarked) [Example 469, N-(8-methoxy-2-(1-methyl-2-oxabicyclo[2.2.1]heptan-4-yl)imidazo[1,2-a]pyrazin-6-yl)-2,3-dihydrobenzofuran-7-carboxamide 2,2,2-trifluoroacetate] | 0.008 µM |
| COc1nc(NC(=O)c2cccc3ccnn23)cn2cc(C34CCC(C)(C3)OC4)nc12 (centres unmarked) [Example 470, N-(8-methoxy-2-(1-methyl-2-oxabicyclo[2.2.1]heptan-4-yl)imidazo[1,2-a]pyrazin-6-yl)pyrazolo[1,5-a]pyridine-7-carboxamide 2,2,2-trifluoroacetate] | 0.006 µM |
| COc1nc(NC(=O)c2coc(C)n2)cn2cc(C34CCC(C)(C3)OC4)nc12 (centres unmarked) [Example 471, N-(8-methoxy-2-(1-methyl-2-oxabicyclo[2.2.1]heptan-4-yl)imidazo[1,2-a]pyrazin-6-yl)-2-methyloxazole-4-carboxamide 2,2,2-trifluoroacetate] | 0.022 µM |
| COc1nc(NC(=O)c2coc(C3CC3)n2)cn2cc(C34CCC(C)(C3)OC4)nc12 (centres unmarked) [Example 472, 2-cyclopropyl-N-(8-methoxy-2-(1-methyl-2-oxabicyclo[2.2.1]heptan-4-yl)imidazo[1,2-a]pyrazin-6-yl)oxazole-4-carboxamide 2,2,2-trifluoroacetate] | 0.015 µM |
| CCOc1nc(NC(=O)c2coc(C)n2)cn2cc(C34COC(C)(C3)C4)nc12 [Example 473, N-(8-ethoxy-2-(1-methyl-2-oxabicyclo[2.1.1]hexan-4-yl)imidazo[1,2-a]pyrazin-6-yl)-2-methyloxazole-4-carboxamide] | 0.031 µM |
| CCOc1nc(NC(=O)c2cccc(C)n2)cn2cc(C3CCOCC3)nc12 [Example 474, N-(8-ethoxy-2-(tetrahydro-2H-pyran-4-yl)imidazo[1,2-a]pyrazin-6-yl)-6-methylpicolinamide 2,2,2-trifluoroacetate] | 0.025 µM |
| CCOc1nc(NC(=O)c2cccc(C(F)F)n2)cn2cc(C3CCOCC3)nc12 [Example 475, 6-(difluoromethyl)-N-(8-ethoxy-2-(tetrahydro-2H-pyran-4-yl)imidazo[1,2-a]pyrazin-6-yl)picolinamide 2,2,2-trifluoroacetate] | 0.008 µM |
| CCCOc1nc(NC(=O)c2cccc(C(F)F)n2)cn2cc(C3CCOCC3)nc12 [Example 476, 6-(difluoromethyl)-N-(8-propoxy-2-(tetrahydro-2H-pyran-4-yl)imidazo[1,2-a]pyrazin-6-yl)picolinamide 2,2,2-trifluoroacetate] | 0.006 µM |
| COc1ccccc1C(=O)Nc1cn2cc(C34COC(C)(C3)C4)nc2c(OC(C)C)n1 [Example 477, N-(8-isopropoxy-2-(1-methyl-2-oxabicyclo[2.1.1]hexan-4-yl)imidazo[1,2-a]pyrazin-6-yl)-2-methoxybenzamide 2,2,2-trifluoroacetate] | 0.015 µM |
| Cc1cccc(C(=O)Nc2cn3cc(C45COC(C)(C4)C5)nc3c(OC(C)C)n2)c1F [Example 478, 2-fluoro-N-(8-isopropoxy-2-(1-methyl-2-oxabicyclo[2.1.1]hexan-4-yl)imidazo[1,2-a]pyrazin-6-yl)-3-methylbenzamide 2,2,2-trifluoroacetate] | 0.012 µM |
| COc1cc(F)ccc1C(=O)Nc1cn2cc(C34COC(C)(C3)C4)nc2c(OC(C)C)n1 [Example 479, 4-fluoro-N-(8-isopropoxy-2-(1-methyl-2-oxabicyclo[2.1.1]hexan-4-yl)imidazo[1,2-a]pyrazin-6-yl)-2-methoxybenzamide 2,2,2-trifluoroacetate] | 0.015 µM |
| CC(C)Oc1nc(NC(=O)c2cccc3ncnn23)cn2cc(C34COC(C)(C3)C4)nc12 [Example 480, N-(8-isopropoxy-2-(1-methyl-2-oxabicyclo[2.1.1]hexan-4-yl)imidazo[1,2-a]pyrazin-6-yl)-[1,2,4]triazolo[1,5-a]pyridine-5-carboxamide] | 0.005 µM |
| CC(C)Oc1nc(NC(=O)c2ccnc3ccnn23)cn2cc(C34COC(C)(C3)C4)nc12 [Example 481, N-(8-isopropoxy-2-(1-methyl-2-oxabicyclo[2.1.1]hexan-4-yl)imidazo[1,2-a]pyrazin-6-yl)pyrazolo[1,5-a]pyrimidine-7-carboxamide] | 0.025 µM |
| CC(C)Oc1nc(NC(=O)c2cnn3cccc(F)c23)cn2cc(C34COC(C)(C3)C4)nc12 [Example 482, 4-fluoro-N-(8-isopropoxy-2-(1-methyl-2-oxabicyclo[2.1.1]hexan-4-yl)imidazo[1,2-a]pyrazin-6-yl)pyrazolo[1,5-a]pyridine-3-carboxamide] | 0.015 µM |
| COc1ccccc1C(=O)Nc1cn2cc(C34COC(CF)(C3)C4)nc2c(OC(C)C)n1 [Example 483, N-(2-(1-(fluoromethyl)-2-oxabicyclo[2.1.1]hexan-4-yl)-8-isopropoxyimidazo[1,2-a]pyrazin-6-yl)-2-methoxybenzamide 2,2,2-trifluoroacetate] | 0.022 µM |
| Cc1nc(C(=O)Nc2cn3cc(C45COC(C)(C4)C5)nc3c(OC3CCC3)n2)co1 [Example 484, N-(8-cyclobutoxy-2-(1-methyl-2-oxabicyclo[2.1.1]hexan-4-yl)imidazo[1,2-a]pyrazin-6-yl)-2-methyloxazole-4-carboxamide] | 0.02 µM |
| CC12CC(c3cn4cc(NC(=O)c5coc(C(F)F)n5)nc(OC5CCC5)c4n3)(CO1)C2 [Example 485, N-(8-cyclobutoxy-2-(1-methyl-2-oxabicyclo[2.1.1]hexan-4-yl)imidazo[1,2-a]pyrazin-6-yl)-2-(difluoromethyl)oxazole-4-carboxamide 2,2,2-trifluoroacetate] | 0.037 µM |
| Cc1nc(C(=O)Nc2cn3cc(C45CCC(C)(C4)OC5)nc3c(OC3CCC3)n2)co1 (centres unmarked) [Example 486, N-(8-cyclobutoxy-2-(1-methyl-2-oxabicyclo[2.2.1]heptan-4-yl)imidazo[1,2-a]pyrazin-6-yl)-2-methyloxazole-4-carboxamide 2,2,2-trifluoroacetate] | 0.016 µM |
| CC(C)Oc1nc2nc(C3CCOCC3)cn2cc1NC(=O)c1cccc2c1OCC2(F)F [Example 487, 3,3-difluoro-N-(7-isopropoxy-2-(tetrahydro-2H-pyran-4-yl)imidazo[1,2-a]pyrimidin-6-yl)-2,3-dihydrobenzofuran-7-carboxamide] | 0.001 µM |
| COc1ccccc1C(=O)Nc1cn2cc(C34COC(C)(C3)C4)nc2nc1OC(C)C [Example 488, N-(7-isopropoxy-2-(1-methyl-2-oxabicyclo[2.1.1]hexan-4-yl)imidazo[1,2-a]pyrimidin-6-yl)-2-methoxybenzamide] | 0.002 µM |
| COc1c(F)cccc1C(=O)Nc1cn2cc(C34COC(C)(C3)C4)nc2nc1OC(C)C [Example 489, 3-fluoro-N-(7-isopropoxy-2-(1-methyl-2-oxabicyclo[2.1.1]hexan-4-yl)imidazo[1,2-a]pyrimidin-6-yl)-2-methoxybenzamide 2,2,2-trifluoroacetate] | 0.003 µM |
| Cc1cccc(C(=O)Nc2cn3cc(C45COC(C)(C4)C5)nc3nc2OC(C)C)c1F [Example 490, 2-fluoro-N-(7-isopropoxy-2-(1-methyl-2-oxabicyclo[2.1.1]hexan-4-yl)imidazo[1,2-a]pyrimidin-6-yl)-3-methylbenzamide] | 0.001 µM |
